Where two headings read alike, the source gives them in different places.
Assays:
[1] = test system: human panelists; assay: Human taste experiments: bitter thresholds and dose-response by sensory panel; type: in vivo; conditions: for Threshold Value Human: bitter threshold, triangle test, tap water; for EC50: bitterness intensity dose-response
Method: 15 experienced panelists in a sensory panel room at 22-25° C. determined bitter thresholds on three different sessions using a triangle test with tap water as solvent, according to methodology set out in J. Agric. Food Chem., 49, 231-238 (2001), or Mailgaard M et al, “Sensory Evaluation Techniques” (CRC Press LLC, New York 1999). For dose-response relations, bitter tastant concentration series were presented to 10 trained panelists in random order. The panelists ranked the samples in increasing order of intensity and, for each concentration, evaluated bitterness intensity on a scale from 0 to 5 (ref. 24). The dose-response curves of three different sessions were averaged. The intensity values between individuals and separate sessions differed by not more than 0.5 units.

[2] = target: T1, hTAS2R16 (Homo sapiens, UniProt Q9NYV7, R222H); assay: FLIPR assay, heterologous expression of hTAS2R16; type: cell-based
T1 construct: gene-specific primers that span the complete coding region of the individual hTAS2R genes; first 45 amino acids of rat somatostatin type 3 receptor (cell surface-targeting signal) (N); expressed in transfected cells; host or cells: HEK293/15 cells (HEK293 stably expressing Galpha15), transient transfection
T1 sequence (Q9NYV7 1-291 R222H): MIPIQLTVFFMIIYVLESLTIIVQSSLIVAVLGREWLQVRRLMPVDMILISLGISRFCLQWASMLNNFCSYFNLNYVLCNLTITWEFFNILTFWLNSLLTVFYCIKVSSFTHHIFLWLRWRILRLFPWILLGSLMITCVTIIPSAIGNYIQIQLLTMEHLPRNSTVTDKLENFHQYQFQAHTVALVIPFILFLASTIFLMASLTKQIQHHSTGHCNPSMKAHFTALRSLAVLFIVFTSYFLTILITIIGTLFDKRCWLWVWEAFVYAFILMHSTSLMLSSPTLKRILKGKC
Description: (§1) Transient transfection of TAS2Rs into HEK-293T-Gα16gustducin44 cells.

[3] = target: T1, hTAS2R16; assay: FLIPR calcium assay, hTAS2R16-expressing HEK293/15 transfectants; type: cell-based
Method: A fluorescence imaging plate reader (FLIPR, Molecular Devices) was used to functionally screen cell populations transiently transfected with expression vectors encoding the above-described 24 bitter receptors and to establish concentration-response curves for hTAS2R16 and hTASR10. […] For the FLIPR experiments the HEK293/15 cells were grown to 50% confluence. […] After 48 h the cells in each well were transfected using Lipofectamine 2000 and 24-30 h later were loaded with FIuo4AM (Molecular Probes). Thereafter they were stimulated with bitter compounds (SigmaAldrich, further purified by reversed-phase HPLC to >99% purity). Calcium signals were recorded simultaneously from each well at 1 Hz at 510 nm after excitation at 488 nm and the recordings were corrected for cell density. […] The calculations rest on at least four independent transfection experiments.
EC50 and threshold values obtained with hTAS2R16-expressing transfectants are shown in Table 1 below and the results are described in Example 4.

[4] = target: T2, hTAS2R38 (Homo sapiens, UniProt P59533); assay: FLIPR assay, heterologous expression of hTAS2R38; type: cell-based
T2 construct: gene-specific primers that span the complete coding region ... contains the first 45 amino acids of the rat somatostatin type 3 receptor
T2 sequence (P59533 1-333 A49P/I296V): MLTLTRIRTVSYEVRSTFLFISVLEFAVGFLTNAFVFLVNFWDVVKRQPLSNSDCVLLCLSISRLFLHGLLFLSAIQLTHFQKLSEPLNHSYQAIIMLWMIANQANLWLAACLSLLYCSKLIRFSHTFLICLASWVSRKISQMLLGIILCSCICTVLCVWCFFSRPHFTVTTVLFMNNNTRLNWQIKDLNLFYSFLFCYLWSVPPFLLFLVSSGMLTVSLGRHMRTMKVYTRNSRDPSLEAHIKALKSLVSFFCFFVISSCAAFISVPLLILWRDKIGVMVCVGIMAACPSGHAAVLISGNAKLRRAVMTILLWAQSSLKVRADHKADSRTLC
Description: These cells stably express a chimeric G protein constructed from human Gα16 and rat gustducin. Finally, we seeded the transfected cells at a density of 3×10^3 cells per well into 96-well black-wall, clear-bottom microtiter plates (Greiner).
Co-transfection of TAS2Rs with gustducin and phospholipase-Cβ2 into HEK-293 cells. Alternatively, we transfected simultaneously plasmid DNAs encoding one of the TAS2Rs, phospholipase-Cβ2 and α-gustducin into HEK-293 cells using the lipofectamine method. Additional cotransfection of G-protein β and γ-subunits may improve the bitter tastant-induced responses. Thereafter, the transfected cells were seeded at a density of 3×10^3 cells per well into 96-well black-wall, clear-bottom microtiter plates (Greiner).
Thereafter, cells were gently washed in HBS by an automated plate washer (Denley Cellwash, Labsystenms) and transferred to the FLIPR (Molecular Devices). The FLIPR integrates an argon laser excitation source, a 96-well pipettor, and a detection system utilizing a Charged Coupled Device imaging camera. […] Fluorescence data were collected 1 min before and 10 min after stimulation. Data were collected every 6 s before and every 1 s after agonist stimulation. 50 μl of 3× concentrated agonists were delivered within 2 by the integrated 96-well pipettor to the wells containing 100 μl HBS. Agonist responses were quantified using the amplitudes of the fluorescence peaks. We averaged the responses of five wells containing cells expressing the same receptor and that received the same stimulus. Calcium traces were determined in triplicate of mock-transfected cells stimulated with the same concentration of tastant.

[5] = test system: human panelists; assay: Human taste adaptation experiment; type: in vivo; conditions: for initial bitterness score by test panel: 8 mM, 15 s; for own bitterness during prolonged stimulation (adaptation): 120 s or 180 s in the mouth
Method: To investigate adaptation, the 8 panelists first maintained aqueous solutions (5 ml) of phenyl-β-D-glucopyranoside (8 mM), phenyl-alpha-D-glucopyranoside (180 mM), salicin (8 mM), or helicin (8 mM) for 15 s in their oral cavities and evaluated the bitter intensity as described above. After 30 min, they kept a denatonium benzoate solution (5 ml, 0.0003 mM) for 15 s in their mouth and evaluated its bitterness. The panelists spat off the denatonium benzoate solution, took up the phenyl-β-D-glucopyranoside or the phenyl-alpha-D-glucopyranoside solutions orally for 120 s or 180 s and judged their bitterness intensity after 15, 30, 60, 120 and 180s. Thereafter, the panelists spat off these solutions and then sequentially took up salicin, helicin (5 ml, 8 mM) and denatonium benzoate (5 ml, 0.0003 mM) and evaluated bitterness intensities of these solutions after 15 s. After an additional 30 min, the first experiment was repeated. The data of three different sessions for each panelist were averaged. Intensity values between individuals and separate sessions differed by not more than ±0.5 units.

[6] = target: T3, hTAS2R10 (Homo sapiens, UniProt Q9NYW0, T156M); assay: FLIPR assay, heterologous expression of hTAS2R10; type: cell-based
T3 construct: gene-specific primers that span the complete coding region of the individual hTAS2R genes; first 45 amino acids of rat somatostatin type 3 receptor (cell surface-targeting signal) (N); expressed in transfected cells; host or cells: HEK-293T-Gα16gustducin44 cells (alternatively HEK-293 co-transfected with phospholipase-Cβ2 and α-gustducin)
T3 sequence (Q9NYW0 1-307 T156M): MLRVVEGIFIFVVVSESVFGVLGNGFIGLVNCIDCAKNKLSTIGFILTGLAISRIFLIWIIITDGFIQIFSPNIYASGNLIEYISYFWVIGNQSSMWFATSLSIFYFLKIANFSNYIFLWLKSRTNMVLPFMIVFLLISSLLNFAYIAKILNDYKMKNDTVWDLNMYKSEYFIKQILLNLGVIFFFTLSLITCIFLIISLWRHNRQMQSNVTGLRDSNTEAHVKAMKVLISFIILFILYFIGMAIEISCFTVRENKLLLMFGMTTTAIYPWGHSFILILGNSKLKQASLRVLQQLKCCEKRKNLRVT
Description: as §1

COC1OC(CO)C(O)C(O)C1O [Compound 7, methyl-beta-D-lucopyranoside]
Threshold Value Human [1]: 32 ± 11 mM

OC[C@H]1O[C@@H](Oc2ccc(O)cc2)[C@H](O)[C@@H](O)[C@@H]1O [Compound 4, arbutin]
Threshold Value Human [1]: 0.9 ± 0.3 mM | EC50 [1]: 5.4 mM | Threshold ([2]; hTAS2R16): 0.5 ± 0.2 mM | EC50 ([2]; hTAS2R16, read-out: EC50): 5.8 ± 0.9 mM | EC50 [3]: 5.8 mM | Threshold Value FLIPR [3]: 0.5 ± 0.2 mM

OC[C@H]1O[C@@H](Oc2ccccc2)[C@H](O)[C@@H](O)[C@H]1O [Compound 10, phenyl-beta-D-galactopyranoside]
Threshold Value Human [1]: 40 ± 13 mM | EC50 [3]: > 100 mM | Threshold Value FLIPR [3]: n.r. (No response up to 100 mM)

CC(=O)NC(N)=S [Acetylthiourea]
Approx. Threshold [4]: 2 µM | receptor activation (in words) [4]: activated | EC50 ([4]; read-out: EC50): 15 µM

NC(=S)Nc1ccccc1 [Phenylthiocarbamid]
Approx. Threshold [4]: 0.3 µM | EC50 [4]: 2 µM | receptor activation (in words) [4]: activated

OC[C@H]1O[C@@H](Oc2ccccc2)[C@H](O)[C@@H](O)[C@@H]1O [Compound 1, phenyl-beta-D-glucopyranoside]
Threshold Value Human [1]: 0.1 ± 0.05 mM | EC50 [1]: 0.7 mM | initial bitterness score by test panel [5]: equally intensely bitter | own bitterness during prolonged stimulation (adaptation) [5]: declined | Threshold ([2]; hTAS2R16): 0.07 ± 0.02 mM | EC50 ([2]; hTAS2R16, read-out: EC50): 1.1 ± 0.1 mM | EC50 [3]: 1.1 mM | Threshold Value FLIPR [3]: 0.07 ± 0.02 mM

Cc1cc(=O)[nH]c(=S)[nH]1 [4(6)-Methyl-2-thiouracil]
Approx. Threshold [4]: 20 µM | receptor activation (in words) [4]: activated | EC50 ([4]; read-out: EC50): 180 µM

O=c1cc(O)[nH]c(=S)[nH]1 [2-Thiobarbituric acid]
reacts at [4]: reacts at 10 mM | receptor activation (in words) [4]: activated

Thioacetamide
Approx. Threshold [4]: 100 µM | receptor activation (in words) [4]: activated

O=[N+]([O-])c1ccc(O[C@@H]2O[C@H](CO)[C@@H](O)[C@H](O)[C@H]2O)cc1 [4-Nitrophenyl-β-D-Glucoside]
Threshold ([2]; hTAS2R16): 1 − 3 mM

CC(=S)Nc1ccccc1 [Thioacetanilide]
Approx. Threshold [4]: 3 µM | receptor activation (in words) [4]: activated | EC50 ([4]; read-out: EC50): 18 µM

COc1cc2c(cc1OC)[C@@]13CCN4CC5=CCO[C@H]6CC(=O)N2[C@H]1[C@H]6[C@H]5C[C@H]43 [Brucine]
EC50 [6]: 60 µM | Approx. Threshold ([6]; hTAS2R10): 0.01 mM | receptor activation (in words) ([6]; hTAS2R10): activated

CN(C)C(=S)N(C)C [Tetramethylthiourea]
Approx. Threshold [4]: 10 to 30 µM | receptor activation (in words) [4]: activated | EC50 ([4]; read-out: EC50): 100 µM

OCC1OC(Oc2ccccc2)C(O)C(O)C1O [Compound 11, phenyl-alpha-D-glucopyranoside]
EC50 ([1]; Homo sapiens): 50 mM | Threshold Value Human [1]: 9 ± 3 mM | own bitterness during prolonged stimulation (adaptation) [5]: desensitized strongly | cross-adaptation with all tested beta-D-glucopyranosides ([5]; in vivo): failed to cross-adapt | EC50 [3]: > 100 mM | Threshold Value FLIPR [3]: n.r. (No response up to 100 mM)

O=c1ccc2cc(O[C@@H]3O[C@H](CO)[C@@H](O)[C@H](O)[C@H]3O)c(O)cc2o1 [Compound 9, esculin]
Threshold Value Human [1]: 4 ± 1 mM | Threshold ([2]; hTAS2R16): 4 ± 2 mM | Threshold Value FLIPR [3]: 4 ± 2 mM

CCNC(N)=S [N-Ethylthiourea]
Approx. Threshold [4]: 30 µM | receptor activation (in words) [4]: activated | EC50 ([4]; read-out: EC50): 260 µM

O=Cc1ccccc1O[C@@H]1O[C@H](CO)[C@@H](O)[C@H](O)[C@H]1O [Compound 3, helicin]
Threshold Value Human [1]: 0.4 ± 0.1 mM | EC50 [1]: 2.2 mM | initial bitterness score by test panel [5]: equally intensely bitter | bitterness after prolonged stimulation with phenyl-beta-D-glucopyranoside (cross-adaptation) ([5]; in vivo): less bitter | Threshold ([2]; hTAS2R16): 0.3 ± 0.1 mM | EC50 ([2]; hTAS2R16, read-out: EC50): 2.3 ± 0.4 mM | EC50 [3]: 2.3 mM | Threshold Value FLIPR [3]: 0.3 ± 0.1 mM

N#CC(O[C@@H]1O[C@H](CO[C@@H]2O[C@H](CO)[C@@H](O)[C@H](O)[C@H]2O)[C@@H](O)[C@H](O)[C@H]1O)c1ccccc1 (stereo partly shown) [Compound 8, amygdalin]
EC50 [2]: 20 ± 3.4 mM | EC50 [3]: 20 mM

N-Methylthiourea
Approx. Threshold [4]: 100 µM | receptor activation (in words) [4]: activated | EC50 ([4]; read-out: EC50): 600 to 800 µM

O=c1cc[nH]c(=S)[nH]1 [Compound 2-Thiouracil, 2-Thiouracil]
Approx. Threshold [4]: 300 µM | receptor activation (in words) [4]: activated | EC50 ([4]; read-out: EC50): ~2000 µM

OC[C@H]1O[C@@H](Oc2ccc3ccccc3c2)[C@H](O)[C@@H](O)[C@@H]1O [Compound 6, naphthyl-beta-D-pyranoside]
EC50 ([1]; Homo sapiens): 1.4 mM | Threshold Value Human [1]: 0.2 ± 0.1 mM | EC50 ([2]; hTAS2R16, read-out: EC50): 1 ± 0.1 mM | EC50 [3]: 1 mM

S=C1NCCN1 [2-Imidazolidinethione]
Approx. Threshold [4]: 10 µM | receptor activation (in words) [4]: activated

O=[N+]([O-])c1ccccc1O[C@@H]1O[C@H](CO)[C@@H](O)[C@H](O)[C@H]1O [Compound 5, 2-nitro-phenyl-beta-D-glucopyranoside]
Threshold ([2]; hTAS2R16): 0.3 − 1 mM | Threshold Value FLIPR [3]: 1.5 ± 0.5 mM

O=[N+]([O-])c1ccc(O[C@@H]2O[C@H](CO)[C@@H](O)[C@H](O)[C@@H]2O)cc1 [4-Nitrophenyl-β-D-Mannoside]
Threshold ([2]; hTAS2R16): 1 − 3 mM

O=[N+]([O-])c1ccc(S[C@@H]2O[C@H](CO)[C@@H](O)[C@H](O)[C@H]2O)cc1 [4-Nitrophenyl-β-D-Thioglucoside]
Threshold ([2]; hTAS2R16): 1 − 5 mM

N,N-dimethylthioformamide [N,N-Dimethyl- thioformamide]
Approx. Threshold [4]: 10 µM | receptor activation (in words) [4]: activated | EC50 ([4]; read-out: EC50): 55 µM
